Laboratory results taken from patent US5910502A, “Use of levobupivacaine in paediatric surgery” (priority 1997, dated 1999).
Counter-ions that a name gives are not always drawn.

Key:
[1] = system: tk locus (5-trifluorothymidine resistance) in mouse lymphoma cells; experiment: Mutation at the tk locus (5-trifluorothymidine resistance) in mouse lymphoma cells, fluctuation protocol, with and without S-9
Procedure: (§1) More specifically, levobupivacaine HCl was assayed for its ability to induce mutation at the tk locus (5-trifluorothymidine resistance) in mouse lymphoma cells using a fluctuation protocol. The study consisted of a cytotoxicity range-finder followed by two independent experiments, each conducted in the absence and presence of metabolic activation by an Aroclor 1254-induced rat liver post-mitochondrial fraction (S-9). For reference, bupivacaine HCl was tested concurrently in the cytotoxicity range-finder.
For reference, three doses of bupivacaine HCl were tested in the absence of S-9 (250, 500 and 750 μg/ml), and two doses in the presence of S-9 (250, 500 μg/ml). The lowest five doses of levobupivacaine HCl and all reference doses of bupivacaine HCl were selected to determined viability and 5-trifluorothymidine resistance, 2 days after treatment.
In the second experiment, the dose range was modified slightly for both levobupivacaine HCl and bupivacaine HCl.
Negative (solvent) and positive control treatments were included in each mutation experiment in the absence and presence of S-9.

[2] = system: heart; central nervous system (CNS); conditions: cited from earlier work
[3] = Cytotoxicity range-finder (relative survival), with and without S-9; type: cell-based, mouse; conditions: mouse
Procedure: as §1
(§2) A wide range of concentrations were selected for the cytotoxicity range-finder experiments, separated by two-fold intervals and ranging from 31.25 to 1000 μg/ml for levobupivacaine HCl and from 62.5 to 2000 μg/ml for bupivacaine HCl (limited by solubility in both cases).

[4] = system: mouse lymphoma cells; experiment: as above; type: cell-based
Procedure: as §1, §2

[5] = system: children having outpatient herniorrhaphy; experiment: Double-blind randomized placebo-controlled clinical study: IlIH nerve block in children having outpatient herniorrhaphy; type: in vivo, human (children ages 6 mo to 12 y)
Procedure: In a clinical study, the suitability of levobupivacaine in paediatric surgery was evaluated. This was a double-blind randomized, placebo-controlled study, to determine the safety and effectiveness of levobupivacaine for field block in children having outpatient herniorrhaphy. More specifically, otherwise healthy children ages 6 mo to 12 y presenting for outpatient herniorrhaphy were randomized to receive either ilioinguinal/iliohytpogastric (IlIH) nerve block(s) with 0.25 ml/kg 0.5% levobupivacaine per side operated, or no block, at the completion of surgery.

[6] = system: patients requiring hernia repair; experiment: Further study in patients requiring hernia repair: rescue analgesia; type: in vivo, human
Procedure: In a further study, using levobupivacaine in patients requiring hernia repair, 45% of patients in the 0.5% levobupivacaine group compared with 73.3% of patients in the no block required at least one dose of rescue analgesia (p=0.167). The majority of the children who required rescue (91.4%) required two or fewer doses of rescue analgesia. […] The median patient in the 0.5% levobupivacaine group first requested rescue medication after at least 118 minutes, compared with 31 minutes in the no block group (p=0.041).

[7] = system: heart; conditions: in vitro; Vanhoutte et al 1991, Denson et al 1992; cited from earlier work
[8] = 0.25 ml/kg 0.5% per side operated, vs no block

SMILES: c1ccc2c(c1)cc1ccc3cccc4ccc2c1c34 [benzo[a]pyrene]
- mutation, positive control ([1]; with S-9): clear increases in mutation

SMILES: CCCCN1CCCCC1C(=O)Nc1c(C)cccc1C (racemic) [bupivacaine]
- dosage limitation by cytotoxicity, summary [1]: limited by cytotoxicity
- genotoxicity, summary [1]: positive for genotoxicity
- CNS side-effects (in words) ([2]; at higher doses): undesirable central nervous system (CNS) side-effects
- cardiotoxicity (in words) ([2]; background): cardiotoxic, having depressant electrophysiological and mechanical effects on the heart
- death in patients (in words) ([2]; including women in childbirth and Bier's block): produced death in a number of patients

SMILES: CCCCN1CCCC[C@H]1C(=O)Nc1c(C)cccc1C [levobupivacaine HCl]
- viability ([3]; absence of S-9, 1000 μg/ml): 150%
- viability ([3]; presence of S-9, 1000 μg/ml): 9.1%
- cell survival (in words) ([4]; 31.25 to 1000 μg/ml, absence and presence of S-9): Cells survived all doses
- mutagenicity, overall conclusion [1]: not mutagenic

SMILES: CCCCN1CCCC[C@H]1C(=O)Nc1c(C)cccc1C [levobupivacaine, (S)-1-butyl-N-(2,6-dimethylphenyl)-2-piperidinecarboxamide]
- genotoxicity, summary [1]: completely negative
- safety and effectiveness for IlIH block, conclusion ([5]; 0.25 ml/kg 0.5% levobupivacaine per side operated): safe and effective
- adverse events specifically attributable to levobupivacaine ([5]; 0.25 ml/kg 0.5% per side operated): absence of any adverse events
- interval to rescue analgesia [5, 8]: longer interval to rescue analgesia
- rescue analgesic doses [5, 8]: fewer rescue analgesic doses
- CHEOPS ([5]; at 15, 20, 30 and 60 min, 0.25 ml/kg 0.5% per side operated, vs no block): lower CHEOPS
- time to first request for rescue medication (in words) ([6]; 0.5% levobupivacaine group vs no block group): significantly longer
- patients requiring at least one dose of rescue analgesia ([6]; 0.5% levobupivacaine group, no block 73.3%, p=0.167): 45%
- median time to first request for rescue medication ([6]; 0.5% levobupivacaine group, no block 31 minutes, p=0.041): at least 118 minutes
- cardiotoxicity relative to dextrobupivacaine and racemic bupivacaine [7]: less cardiotoxic than dextrobupivacaine and racemic bupivacaine

SMILES: O=[N+]([O-])c1cc[n+]([O-])c2ccccc12 [4-nitroquinoline 1-oxide]
- mutation, positive control ([1]; without S-9): clear increases in mutation

SMILES: CCCCN1CCCCC1C(=O)Nc1c(C)cccc1C (stereo not drawn) [bupivacaine HCl]
- viability ([3]; absence of S-9, 500 μg/ml): 100%
- viability ([3]; presence of S-9, 500 μg/ml): 12.4%
- cytotoxicity (in words) ([4]; bupivacaine HCl (reference), top two doses, 1000 and 2000 μg/ml): completely toxic
